Reference: patent publication US4277468A, “11-Methylene steroids, their preparation and pharmaceutical preparations containing them” (Schering Aktiengesellschaft, priority 1979, dated 1981)

Experiments:
[1] = system: ovulation; test: Ovulation inhibition test on rats, subcutaneous application, determined by tubal inspection; format: in vivo
Description: OVULATION INHIBITION IN RATS AFTER
SUBCUTANEOUS APPLICATION
The ovulation inhibition was determined by tubal inspection.

[2] = Androgenic side effects; details: in words, relative to B

SMILES	Ovulation inhibition in rats after subcutaneous application (% inhibition) ([1]; dose 0.03 mg) [%]	Ovulation inhibition in rats after subcutaneous application (% inhibition) ([1]; dose 0.1 mg) [%]	Ovulation inhibition strength relative to ethynyl compound B ([1]; seen from the table)	Androgenic side effects compared with B [2]
C=C1C[C@@]2(CC)[C@@H](CC[C@@]2(O)C#CCl)[C@@H]2CCC3=CC(=O)CC[C@@H]3[C@@H]12 [A, 17α-chloroethynyl-17β-hydroxy-18-methyl-11-methylene-4-estren-3-one]	83	100	at least three times stronger than ethynyl compound B	less androgenic side effects than B
C#C[C@]1(O)CC[C@H]2[C@@H]3CCC4=CC(=O)CC[C@@H]4[C@H]3C(=C)C[C@@]21CC [B, 17α-ethynyl-17β-hydroxy-18-methyl-11-methylene-4-estren-3-one, reference compound]	0	100		
